Assays:
[1] = test system: HdFa cells; assay: MTT cell proliferation assay on normal HdFa cells; type: cell-based, human; details: normal HdFa cells versus SW1990 cancer cells
Protocol: Cell proliferation assay. The cytotoxicity of scFv-drug or free drug was quantified by using the Vybrant MTT cell proliferation assay kit (Molecular Probes). Assays were performed using 48-well microtiter plates containing 2×10^4 SW1990 (HdFa) cells/well in 300 μL of phenol-free growth medium. Cells were allowed to attach to the wells for 12 hours. For determination of IC50, cells were incubated for 3 or 12 h at 37° C. with various concentrations of Pan10-drug conjugates, maleimide derivatives or free drugs. Then the incubation was continued in conjugate/drug-free medium and the MTT assay was performed at the end of the seventh day. Medium was replaced with 100 μL of fresh medium containing 1.2 mM MTT and the incubation continued for three more hours. The cells were then lysed by adding 100 μL of a 10 mM solution of HCL containing SDS (100 mg/mL). The cell lysis was allowed to proceed for a period of 8 hours at the end of which the plate was centrifuged at 3000 rpm for 3 min and the supernatant transferred in a 96-well plate and read at 570 nm. Each assay included a […]. All assays were performed at least twice. A set of 8 data points was obtained with various concentration of cytotoxicity agent. […]

[2] = Parrish et al. 2003; different cell line, exposure time and cytotoxicity assay; read-out: IC50, previously obtained values; cited from earlier work
[3] = test system: SW1990 cells; assay: MTT cell proliferation assay on SW1990 cells; type: cell-based; details: Homo sapiens
Protocol: Cell proliferation assay. The cytotoxicity of scFv-drug or free drug was quantified by using the Vybrant MTT cell proliferation assay kit (Molecular Probes). Assays were performed using 48-well microtiter plates containing 2×10^4 SW1990 (HdFa) cells/well in 300 μL of phenol-free growth medium. Cells were allowed to attach to the wells for 12 hours. For determination of IC50, cells were incubated for 3 or 12 h at 37° C. with various concentrations of Pan10-drug conjugates, maleimide derivatives or free drugs. Then the incubation was continued in conjugate/drug-free medium and the MTT assay was performed at the end of the seventh day. Medium was replaced with 100 μL of fresh medium containing 1.2 mM MTT and the incubation continued for three more hours. The cells were then lysed by adding 100 μL of a 10 mM solution of HCL containing SDS (100 mg/mL). The cell lysis was allowed to proceed for a period of 8 hours at the end of which the plate was centrifuged at 3000 rpm for 3 min and the supernatant transferred in a 96-well plate and read at 570 nm. Each assay included a […]. All assays were performed at least twice. A set of 8 data points was obtained with various concentration of cytotoxicity agent. In order to obtain the IC50 values, data points from each set were fit to the sigmoidal dose-response curve defined by Equation 3 using Grafit5 (Leatherbarrow R. J. 2003. Grafit version 5.08, Erithieus Software Ltd, Staines, England).
y^a=min y+[(max y−min y)/(1+(IC50/x^b)^slope)] (Equation 3)
^bx=concentration of drug (drug-scF)
Data points which were outliers (typically 1-2 per experiment) were discarded.
SW1990 cells treated with Pan10, Pan10-FM, Pan10-3 or Pan10-4 were examined by inverted microscopy for a qualitative determination of the effect of the drug conjugates on the cell viability. […] The cytotoxic effect of the Pan10-drug conjugates in comparison with the toxicity of the free drugs was then quantified by the MTT (3-(4,5-dimethylthiazol-2-yl)-2,5,-diphenyltetrazolium bromide) cell-proliferation assay. Liu et al., J Neurochem, 69: 581-593, 1997; Berridge et al., Arch Biochem Biophys, 303: 474-482, 1993; Vistica et al., Cancer Res, 51: 2515-2520, 1991. SW1990 pancreatic carcinoma cells were seeded and allowed to attach in growth medium overnight. The cultures were then treated for either 3 or 12 h with increasing concentrations of free drugs or Pan10-drug conjugates.

Compound	IC50 on HdFa cells relative to IC50 against SW1990 cells [1]	IC50 [2]	IC50 ([3]; SW1990, 3 h)	IC50 ([3]; SW1990, 12 h)
CC(=O)c1ccc2[nH]c(C(=O)N3C[C@@H](CCl)c4c3cc(O)c3ccccc43)cc2c1 [compound 1, 3-(5-acetylindole-2-carbonyl)-1-(S)-(chloromethyl)-5-hydroxy-1,2-dihydro-3H-benz[e]indole]	roughly the same IC50 values against both cells lines	0.002 nM	1.4 ± 0.2 nM	0.43 ± 0.17 nM
NCCCn1c(C(=O)Nc2ccc3[nH]c(C(=O)N4CC(CCl)c5c4cc(O)c4ccccc54)cc3c2)cc2ccccc21 (stereo not shown) [compound 2, 3-[5-(1-(3-aminopropyl)indole-2-carbonyl)aminoindole-2-carbonyl]-1-(chloromethyl)-5-hydroxy-1,2-dihydro-3H-benz[e]indole]		0.03 nM	32.1 ± 13.1 nM	4.3 ± 0.2 nM

Source: patent US20080267981A1, “Compositions and Methods for Delivery of Antitumor Agents” (The Scripps Research Institute, priority 2004, published 2008)
